The values that follow come from ChEMBL document CHEMBL2331441, “Phosphodiesterase inhibitors. Part 5: hybrid PDE3/4 inhibitors as dual bronchorelaxant/anti-inflammatory agents for inhaled administration” (Bioorg Med Chem Lett, 2013).

The structures appear in SMILES notation.

The target in assay [1] is cGMP-inhibited 3',5'-cyclic phosphodiesterase 3A (Homo sapiens, UniProt Q14432). Put plainly: Inhibition of PDE3A (unknown origin) by radiochemical assay.
The target in assay [2] is T1, 3',5'-cyclic-AMP phosphodiesterase 4B (Homo sapiens, UniProt Q07343). Put plainly: Inhibition of PDE4B (unknown origin) by radiochemical assay.
The next assay relates to Cavia porcellus. Put plainly: Bronchodilatory activity in guinea pig assessed as inhibition of histamine-induced bronchoconstriction at 0.1 mg/kg, iv. The class given is functional.
The target of assay [3] is T1, 3',5'-cyclic-AMP phosphodiesterase 4B. Briefly: Ratio of IC50 for KCA-1450 to compound IC50 for PDE4B (unknown origin) by radiochemical assay.
The species entered for the next assay is Homo sapiens. Put plainly: Selectivity ratio of IC50 for PDE3A (unknown origin) to IC50 for PDE4B (unknown origin).
The subject of a further assay is Rattus norvegicus. Put plainly: Inhibition of LPS-induced leukocyte influx into rat lung at 100 ug/kg administered intratracheally 3 hrs prior LPS challenge. Particulars: inhaled or nasal. The class given is functional.

T1 sequence (Q07343 whole entry): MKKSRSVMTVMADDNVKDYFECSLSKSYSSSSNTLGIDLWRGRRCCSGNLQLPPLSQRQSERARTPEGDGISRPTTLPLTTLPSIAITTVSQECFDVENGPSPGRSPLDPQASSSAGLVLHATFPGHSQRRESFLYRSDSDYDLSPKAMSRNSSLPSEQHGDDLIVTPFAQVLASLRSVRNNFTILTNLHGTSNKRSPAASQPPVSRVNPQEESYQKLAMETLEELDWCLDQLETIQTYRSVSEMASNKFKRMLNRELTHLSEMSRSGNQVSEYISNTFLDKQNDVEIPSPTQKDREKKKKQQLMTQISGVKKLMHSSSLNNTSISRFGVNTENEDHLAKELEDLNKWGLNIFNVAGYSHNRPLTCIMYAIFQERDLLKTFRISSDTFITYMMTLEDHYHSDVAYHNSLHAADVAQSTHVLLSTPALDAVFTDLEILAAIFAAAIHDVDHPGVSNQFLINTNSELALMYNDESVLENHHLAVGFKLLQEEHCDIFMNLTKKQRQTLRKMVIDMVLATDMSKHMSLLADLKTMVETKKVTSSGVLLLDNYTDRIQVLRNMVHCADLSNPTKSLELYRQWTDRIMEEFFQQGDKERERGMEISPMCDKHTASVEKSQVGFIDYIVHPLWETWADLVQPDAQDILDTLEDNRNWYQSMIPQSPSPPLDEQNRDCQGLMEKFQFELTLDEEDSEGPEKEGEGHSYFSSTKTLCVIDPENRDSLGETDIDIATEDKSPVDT
Sequence of cGMP-inhibited 3',5'-cyclic phosphodiesterase 3A (Q14432 whole entry): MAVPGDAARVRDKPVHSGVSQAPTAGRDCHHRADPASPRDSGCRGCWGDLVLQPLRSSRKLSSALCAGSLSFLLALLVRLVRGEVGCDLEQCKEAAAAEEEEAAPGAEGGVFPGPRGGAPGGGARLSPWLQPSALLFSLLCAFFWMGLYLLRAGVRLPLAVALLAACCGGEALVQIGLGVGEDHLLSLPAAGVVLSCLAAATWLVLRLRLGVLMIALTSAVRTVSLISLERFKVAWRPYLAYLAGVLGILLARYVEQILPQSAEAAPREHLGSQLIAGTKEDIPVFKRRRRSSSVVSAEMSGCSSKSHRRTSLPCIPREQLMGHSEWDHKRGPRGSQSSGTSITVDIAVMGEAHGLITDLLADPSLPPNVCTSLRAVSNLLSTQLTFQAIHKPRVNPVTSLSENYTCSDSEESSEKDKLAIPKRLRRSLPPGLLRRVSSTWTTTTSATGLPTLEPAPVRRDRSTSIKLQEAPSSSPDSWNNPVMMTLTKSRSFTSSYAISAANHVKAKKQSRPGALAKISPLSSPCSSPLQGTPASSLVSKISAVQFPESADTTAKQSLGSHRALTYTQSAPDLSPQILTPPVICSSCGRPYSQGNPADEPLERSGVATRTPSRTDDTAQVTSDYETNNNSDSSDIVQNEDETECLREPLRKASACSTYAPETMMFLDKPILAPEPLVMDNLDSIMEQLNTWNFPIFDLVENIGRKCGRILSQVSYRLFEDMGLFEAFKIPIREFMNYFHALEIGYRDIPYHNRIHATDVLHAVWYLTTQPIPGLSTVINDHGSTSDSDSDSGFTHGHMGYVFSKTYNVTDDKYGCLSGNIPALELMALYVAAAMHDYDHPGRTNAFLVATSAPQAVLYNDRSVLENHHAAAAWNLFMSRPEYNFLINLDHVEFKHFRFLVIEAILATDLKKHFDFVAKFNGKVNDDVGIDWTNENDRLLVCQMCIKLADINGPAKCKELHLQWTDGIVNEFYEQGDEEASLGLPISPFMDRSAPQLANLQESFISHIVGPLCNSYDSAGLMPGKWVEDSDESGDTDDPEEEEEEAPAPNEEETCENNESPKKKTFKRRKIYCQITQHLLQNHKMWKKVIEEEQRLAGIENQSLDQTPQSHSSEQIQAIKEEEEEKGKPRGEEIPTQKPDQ

As to `CCc1cc2c(-c3ccc(=O)n(CCCCOc4ccc(C5=NNC(=O)CC5C)cc4)n3)ccc(OC)n2n1` (stereo not given), the values for the IC50 in assay [1] and in assay [2] were 2.7 nM and 20 nM, respectively. The inhibition in vivo (in general, the relative decrease from the control value, in per cent) at 0.1 mg/kg with Cavia porcellus is 71%.

`COc1ccc(C2=NN(CCCCOc3ccc(-c4ccc(=O)[nH]n4)cc3)C(=O)CC2C)c2cc(C(F)(F)F)nn12` (stereo not given): the IC50 (as a rule, the midpoint of a concentration-inhibition curve) amounted to 38000 nM in assay [1] and 20 nM in assay [2].

For the compound `CCc1cc2c(C3=NN(CCCOc4ccc(C5=NNC(=O)CC5C)cc4)C(=O)CC3C)ccc(OC)n2n1` (stereo not given), the figures for the IC50 in assay [1] and in assay [2] were 11 nM and 5.9 nM, respectively.

As to `COc1ccc(C2=NN(CCOc3ccc(C4=NNC(=O)CC4C)cc3)C(=O)CC2C)c2cc(C(F)(F)F)nn12` (stereo not given), the IC50 stood at 130 nM in assay [1] and 0.66 nM in assay [2]. The Ratio IC50 in assay [3] is 23.

As to `COc1ccc(C2=NN(CCCCOc3cccc(C4=NNC(=O)C4(C)C)c3)C(=O)CC2C)c2cc(C(F)(F)F)nn12` (stereo not given), the IC50 in assay [1] amounted to 1730 nM; in assay [2] it was 0.064 nM. For the same compound, the Ratio IC50 in the assay listed under Homo sapiens was 10000.

For the compound `COc1ccc(C2=NN(CCCCOc3ccc(C4=NNC(=O)CC4C)cc3)C(=O)CC2C)c2cc(C(F)(F)F)nn12` (stereo not given), the IC50 in assay [1] was found to be 15 nM; in assay [2], 0.3 nM. The Ratio IC50 in assay [3] was determined as 23.

For `COc1ccc(C2=NN(CCCCOc3ccc(C4=NNC(=O)C4(C)C)c(F)c3F)C(=O)C2(C)C)n2cc(C(F)(F)F)nc12`, the IC50 is 40 nM in assay [1] and 3.2 nM in assay [2]. For the same compound, the inhibition in vivo at 0.1 mg/kg in the assay on Cavia porcellus came to 76%.

For `COc1ccc(C2=NN(CCCCOc3ccc(-c4n[nH]c(=O)cc4C)cc3)C(=O)CC2C)c2cc(C(F)(F)F)nn12` (stereo not given), the IC50 is 40000 nM in assay [1] and 6 nM in assay [2].

`COc1ccc(C2=NN(CCCCOc3ccc(C4=NNC(=O)CC4)c(F)c3F)C(=O)CC2C)c2cc(C(F)(F)F)nn12` (stereo not given): the IC50 in assay [1] was 5.1 nM; in assay [2], 2.2 nM.

Turning to `CCc1cc2c(C3=NN(CCCCOc4ccc(C5=NNC(=O)CC5C)cc4)C(=O)C3(C)C)ccc(OC)n2n1` (stereo not given), the IC50 worked out at 1.7 nM in assay [1] and 0.6 nM in assay [2]. The inhibition in vivo at 0.1 mg/kg with Cavia porcellus was determined as 92%.

On to `COc1ccc(C2=NN(CCCCCOc3ccc(C4=NNC(=O)CC4C)cc3)C(=O)CC2C)c2cc(C(F)(F)F)nn12` (stereo not given), for which the IC50 in assay [1] is 72 nM; in assay [2] it was 0.2 nM. Also, in assay [3], the Ratio IC50 is 23.

Turning to `CCc1cc2c(C3=NN(CCCCOc4ccc(C5=NNC(=O)CC5C)cc4)C(=O)CC3)ccc(OC)n2n1` (stereo not given), the IC50 in assay [1] was determined as 0.27 nM; in assay [2], 2.7 nM. Further, the inhibition in vivo at 0.1 mg/kg in the assay on Cavia porcellus stood at 28%.

Take `COc1ccc(C2=NN(CCCCOc3ccc(C4=NNC(=O)C4(C)C)c(F)c3F)C(=O)C2(C)C)c2sc(C(F)(F)F)nc12`: the IC50 in assay [1] was 63 nM; in assay [2] it was 0.38 nM. Further, the inhibition in vivo at 0.1 mg/kg with Cavia porcellus was 36%.

Take `COc1ccc(C2=NN(CCCCOc3ccc(C4=NNC(=O)C4(C)C)c(F)c3)C(=O)CC2C)c2cc(C(F)(F)F)nn12` (stereo not given): the IC50 was 58 nM in assay [1] and 0.3 nM in assay [2].

On to `COc1ccc(C2=NN(CCCCOc3ccc(C4=NNC(=O)C4(C)C)cc3)C(=O)CC2C)c2cc(C(F)(F)F)nn12` (stereo not given), for which the IC50 in assay [1] stood at 270 nM; in assay [2], 0.5 nM.

On to `COc1ccc(C2=NNC(=O)C[C@@H]2C)c2cc(C(F)(F)F)nn12`, for which the IC50 came out at 360 nM in assay [1] and 42 nM in assay [2].

Take `CCc1cc2c(C3=NN(CCCCOc4ccc(C5=NNC(=O)CC5C)cc4)C(=O)CC3C)ccc(OC)n2n1` (stereo not given): the IC50 came to 1.2 nM in assay [1] and 1.7 nM in assay [2]. Moreover, the inhibition in vivo at 0.1 mg/kg in the assay on Cavia porcellus turned out to be 96%.

Consider `COc1ccc(C2=NN(CCCOc3ccc(C4=NNC(=O)CC4C)cc3)C(=O)CC2C)c2cc(C(F)(F)F)nn12` (stereo not given), for which the results for the IC50 in assay [1] and in assay [2] were 140 nM and 3 nM, respectively. In addition, in assay [3], the Ratio IC50 was 23.

Consider `COc1ccc(C2=NN(CCCCOc3cccc(C4=NNC(=O)CC4C)c3)C(=O)CC2C)c2cc(C(F)(F)F)nn12` (stereo not given), for which the IC50 in assay [1] is 590 nM; in assay [2], 0.5 nM.

As for `COc1ccc(C2=NN(CCCCOc3ccc(C4=NNC(=O)CC4)c(F)c3F)C(=O)C2(C)C)n2cc(C(F)(F)F)nc12`, the results for the IC50 in assay [1] and in assay [2] were 5 nM and 6.7 nM, respectively. For the same compound, the inhibition in vivo at 0.1 mg/kg with Cavia porcellus was found to be 87%; in the assay with Rattus norvegicus, 56%.

Turning to `COc1ccc(C2=NN(CCCCOc3ccc(C4=NNC(=O)C4(C)C)cc3F)C(=O)CC2C)c2cc(C(F)(F)F)nn12` (stereo not given), the values for the IC50 in assay [1] and in assay [2] were 1520 nM and 1.4 nM, respectively.

`COc1ccc(C2=NN(CCCCOc3ccc(C4=NNC(=O)CC4)cc3)C(=O)CC2C)c2cc(C(F)(F)F)nn12` (stereo not given): the IC50 was 360 nM in assay [1] and 0.1 nM in assay [2].

`COc1ccc(C2=NNC(=O)CC2C)c2cc(C(F)(F)F)nn12` (racemic): the IC50 in assay [1] came to 2380 nM; in assay [2], 70 nM.

As to `COc1ccc(C2=NN(CCCCOc3ccc(C4=NNC(=O)CC4)c(F)c3F)C(=O)C2(C)C)c2sc(C(F)(F)F)nc12`, the results for the IC50 in assay [1] and in assay [2] were 6.9 nM and 0.77 nM, respectively. In addition, the inhibition in vivo at 0.1 mg/kg in the assay with Cavia porcellus worked out at 96%; in the assay with Rattus norvegicus, 51%.

Take `COc1ccc(C2=NN(CCCCOc3ccc(C4=NNC(=O)C4(C)C)c(F)c3F)C(=O)CC2C)c2cc(C(F)(F)F)nn12` (stereo not given): the IC50 in assay [1] is 15 nM; in assay [2], 3.1 nM.
